Laboratory results taken from patent publication US20230365585A1, “BENZODIAZEPINE DERIVATIVES USEFUL IN TREATING A RESPIRATORY SYNCYTIAL VIRUS INFECTION” (priority 2020, published 2023).

What was measured:
[1] = system: RSV A2; assay: RSV plaque reduction assay; format: cell-based, RSV (RSV A2 ECACC, 0709161v); settings: Hep-G2 cells, RSV A2, 2 days, mean of at least two experiments
Experimental: Compounds were subjected to RSV plaque reduction assays according to the following protocol.
Hep-G2 cells (ECACC, 85011430) were passaged in flasks and seeded in 24-well plates in DMEM containing antibiotics and supplemented with 10% FBS. During inoculation and subsequent incubation, cells were cultured in DMEM containing 2% FBS. 100 plaque forming unit/well of RSV (RSV A2 ECACC, 0709161v) was mixed with eight serial dilutions of compound. Subsequently, 100 µL of the virus/compound mixtures was added to confluent Hep-G2 cell monolayers. The cells and virus/compound mixtures were incubated at 37° C. in a humidified 5% CO2 incubator for 2 h prior to removal of the inoculum and addition of 1 mL of overlay (DMEM containing 2% FBS and 0.8% CMC) containing compound dilutions. The cells and were incubated at 37° C. in a humidified 5% CO2 incubator for 2 days.
Cells were washed with PBS before adding 75%/25% v/v EtOH/MeOH, for 3 min. Fix ative was removed and plates were washed with PBS. A pre-titrated amount of the primary antibody was added in 200 µL PBS/2% milk powder, and plates incubated for 90 min at 37° C. The plates were washed 3 times with PBS/0.05% Tween20 before addition of rabbit anti-goat horse radish peroxidase in 200 µL PBS/2% milk powder, and incubated for 1 h at 37° C. Following three wash steps with PBS/0.05% Tween20, 200 µL ready-to-use TrueBlue was added and plates were incubated at rt for 10-15 min before washing with water. After removal of water, plates were air-dried in the dark.
(§1) Plates were scanned and analysed using the Immunospot S6 Macro analyser, which is equipped with BioSpot analysis software for counting immunostained plaques (virospots). Plaque counts were used to calculate % infection relative to the mean of the plaque count in the virus control wells for RSV. […] Plaque EC50 and cell toxicity CC50 values are a mean of at least two experiments and figures are rounded to whole units.

[2] = system: Hep-G2 cells; assay: Cell cytotoxicity CC50; format: cell-based; settings: mean of at least two experiments
Text: as §1

[3] = Cell cytotoxicity CC50; format: cell-based; settings: human; mean of at least two experiments
Text: as §1

[4] = human respiratory syncytial virus, HepG2, 48 h

| Compound | EC50 [1] | CC50 [2] | EC50 [1, 4] | CC50 [3] |
| --- | --- | --- | --- | --- |
| CCNc1ccc(-c2nn3c(c2C(=O)N[C@H]2N=C(c4ccccc4)c4ccccc4NC2=O)OC(C)CCC3)c(F)n1 (single isomer, unassigned) [Example 10-2, (5S*)-2-[6-(ethylamino)-2-fluoropyridin-3-yl]-5-methyl-N-[(3S)-2-oxo-5-phenyl-1,3-dihydro-1,4-benzodiazepin-3-yl]-5,6,7,8-tetrahydropyrazolo[5,1-b][1,3]oxazepine-3-carboxamide] | 24 nM | > 25000 nM |  |  |
| 2-(2,4-Difluorophenyl)-5-methyl-N-[(3S)-2-oxo-5-phenyl-1,3-dihydro-1,4-benzodiazepin-3-yl]-5,6,7,8-tetrahydropyrazolo[5,1-b][1,3]oxazepine-3-carboxamide [Example 16] | 64 nM | > 25000 nM |  |  |
| CCC1CCCn2nc(-c3ccc(C)nc3)c(C(=O)N[C@H]3N=C(c4ccccc4)c4ccccc4NC3=O)c2O1 (single isomer, unassigned) [Example 26-2, (5S*)-5-ethyl-2-(6-methylpyridin-3-yl)-N-[(3S)-2-oxo-5-phenyl-2,3-dihydro-1H-1,4-benzodiazepin-3-yl]-5H,6H,7H,8H-pyrazolo[3,2-b][1,3]oxazepine-3-carboxamide] | 329 nM | > 25000 nM |  |  |
| CC1CCCOc2c(C(=O)NC3N=C(c4ccccc4)c4ccccc4NC3=O)c(-c3ccccc3F)nn21 (single isomer, unassigned) [Example 14-2, (8S*)-2-(2-Fluorophenyl)-8-methyl-N-(2-oxo-5-phenyl-1,3-dihydro-1,4-benzodiazepin-3-yl)-5,6,7,8-tetrahydropyrazolo[5,1-b][1,3]oxazepine-3-carboxamide] | 60 nM | > 25000 nM |  |  |
| CC1CCCOc2c(C(=O)NC3N=C(c4ccccc4)c4cccc(F)c4NC3=O)c(-c3ccccc3F)nn21 (single isomer, unassigned) [Example 15-2, (8S*)-N-(9-fluoro-2-oxo-5-phenyl-1,3-dihydro-1,4-benzodiazepin-3-yl)-2-(2-fluorophenyl)-8-methyl-5,6,7,8-tetrahydropyrazolo[5,1-b][1,3]oxazepine-3-carboxamide] | 37 nM | > 25000 nM |  |  |
| CCC1CCCn2nc(-c3ccccc3F)c(C(=O)N[C@H]3N=C(c4ccccc4)c4cccc(F)c4NC3=O)c2O1 (single isomer, unassigned) [Example 25-2, (5S*)-5-ethyl-2-(2-fluorophenyl)-N-[(3S)-9-fluoro-2-oxo-5-phenyl-1,3-dihydro-1,4-benzodiazepin-3-yl]-5,6,7,8-tetrahydropyrazolo[5,1-b][1,3]oxazepine-3-carboxamide] | 83 nM | > 25000 nM |  |  |
| CCC1CCCn2nc(-c3ccccc3F)c(C(=O)N[C@H]3N=C(c4ccccc4)c4ccccc4NC3=O)c2O1 (single isomer, unassigned) [Example 24-2, (5S*)-5-ethyl-2-(2-fluorophenyl)-N-[(3S)-2-oxo-5-phenyl-2,3-dihydro-1H-1,4-benzodiazepin-3-yl]-5H,6H,7H,8H-pyrazolo[3,2-b][1,3]oxazepine-3-carboxamide] | 89 nM | > 25000 nM |  |  |
| CC(C)Nc1ccc(-c2nn3c(c2C(=O)N[C@H]2N=C(c4ccccc4)c4cccc(F)c4NC2=O)OC(C)CCC3)c(F)n1 (single isomer, unassigned) [Example 13-2, (5S*)-N-[(3S)-9-fluoro-2-oxo-5-phenyl-1,3-dihydro-1,4-benzodiazepin-3-yl]-2-[2-fluoro-6-(propan-2-ylamino)pyridin-3-yl]-5-methyl-5,6,7,8-tetrahydropyrazolo[5,1-b][1,3]oxazepine-3-carboxamide] | 23 nM | > 25000 nM |  |  |
| CC1CCCn2nc(-c3ccc(F)cc3F)c(C(=O)N[C@H]3N=C(c4ccccc4)c4cccc(F)c4NC3=O)c2O1 (single isomer, unassigned) [Example 17-2, (5S*)-2-(2,4-difluorophenyl)-N-[(3S)-9-fluoro-2-oxo-5-phenyl-1,3-dihydro-1,4-benzodiazepin-3-yl]-5-methyl-5,6,7,8-tetrahydropyrazolo[5,1-b][1,3]oxazepine-3-carboxamide] | 20 nM | > 25000 nM |  |  |
| CCC1CCCn2nc(-c3ccc(C)nc3)c(C(=O)N[C@H]3N=C(c4ccccc4)c4cccc(F)c4NC3=O)c2O1 (single isomer, unassigned) [Example 27-2, (5S*)-5-ethyl-N-[(3S)-9-fluoro-2-oxo-5-phenyl-2,3-dihydro-1H-1,4-benzodiazepin-3-yl]-2-(6-methylpyridin-3-yl)-5H,6H,7H,8H-pyrazolo[3,2-b][1,3]oxazepine-3-carboxamide] | 259 nM | > 25000 nM |  |  |
| CC(C)Nc1ccc(-c2nn3c(c2C(=O)N[C@H]2N=C(c4ccccc4)c4cccc(F)c4NC2=O)OC(C)CCC3)c(F)n1 (single isomer, unassigned) [Example 13-1, (5R*)-N-[(3S)-9-fluoro-2-oxo-5-phenyl-1,3-dihydro-1,4-benzodiazepin-3-yl]-2-[2-fluoro-6-(propan-2-ylamino)pyridin-3-yl]-5-methyl-5,6,7,8-tetrahydropyrazolo[5,1-b][1,3]oxazepine-3-carboxamide] |  |  | 26 nM | > 25000 nM |
| CCc1ccc(-c2nn3c(c2C(=O)N[C@H]2N=C(c4ccccc4)c4cccc(F)c4NC2=O)OCC(F)(F)CC3)cn1 [Example 22, 2-(6-Ethylpyridin-3-yl)-6,6-difluoro-N-[(3S)-9-fluoro-2-oxo-5-phenyl-2,3-dihydro-1H-1,4-benzodiazepin-3-yl]-5H,6H,7H,8H-pyrazolo[3,2-b][1,3]oxazepine-3-carboxamide] |  |  | 103 nM | > 25000 nM |
| O=C(N[C@H]1N=C(c2ccccc2)c2cccc(F)c2NC1=O)c1c(-c2ccccc2F)nn2c1O[C@H]1CC[C@@H]2C1 (single isomer, unassigned) [Example 19-2, (1R*,8S*)-N-[(3 S)-9-fluoro-2-oxo-5-phenyl-2,3-dihydro-1H-1,4-benzodiazepin-3-yl]-4-(2-fluorophenyl)-7-oxa-2,3-diazatricyclo[6.2.1.0^2,6]undeca-3,5-diene-5-carboxamide] |  |  | 53 nM | > 25000 nM |
| O=C(N[C@H]1N=C(c2ccccc2)c2ccccc2NC1=O)c1c(-c2ccccc2F)nn2c1OCCCC2 [Example 7, 2-(2-Fluorophenyl)-N-[(3S)-2-oxo-5-phenyl-1,3-dihydro-1,4-benzodiazepin-3-yl]-5,6,7,8-tetrahydropyrazolo[5,1-b][1,3]oxazepine-3-carboxamide] |  |  | 52 nM | > 25000 nM |
| CS(=O)(=O)c1ccc(-c2nn3c(c2C(=O)N[C@H]2N=C(c4ccccc4)c4cccc(F)c4NC2=O)OC2CCC3C2)c(F)c1 (stereo partly drawn) [Example 32, 4-(2-Fluoro-4-methylsulfonylphenyl)-N-[(3S)-9-fluoro-2-oxo-5-phenyl-1,3-dihydro-1,4-benzodiazepin-3-yl]-7-oxa-2,3-diazatricyclo[6.2.1.02,6]undeca-3,5-diene-5-carboxamide] |  |  | 23 nM | > 25000 nM |
| CC1CCCOc2c(C(=O)N[C@H]3N=C(c4ccccc4)c4cccc(F)c4NC3=O)c(-c3ccccc3F)nn21 (stereo partly drawn) [Example 15, N-[(3S)-9-fluoro-2-oxo-5-phenyl-1,3-dihydro-1,4-benzodiazepin-3-yl]-2-(2-fluorophenyl)-8-methyl-5,6,7,8-tetrahydropyrazolo[5,1-b][1,3]oxazepine-3-carboxamide] |  |  | 64 nM | > 25000 nM |
